Results published in article PMC5399052, “Integrating in vitro data and physiologically based kinetic (PBK) modelling to assess the in vivo potential developmental toxicity of a series of phenols” (Archives of Toxicology, 2016).
Read-outs that look alike come from different tables or passages of the source. Marks after values point to notes of the source that are not given here.

Columns and labels:
in vitro [1] = settings: human, Caco-2
Protocol: (§1) Caco-2 cells (passages 37–40) were cultured in DMEM containing 25 mM HEPES (pH 7.4) supplemented with 10% (v/v) heat-inactivated FCS, 4500 mg/l glucose, 2 mM L-glutamine, 1% (v/v) minimal essential medium non-essential amino acids, 10,000 U/ml penicillin and 10 mg/ml streptomycin and maintained in polystyrene cell culture flasks (Corning, Amsterdam, the Netherlands) in a 5% CO2-humidified atmosphere at 37 °C. Cells were harvested after exposure to a trypsin–EDTA solution. Next, the cells were seeded onto Transwell® inserts (0.4 µm pored polycarbonate membrane, 12 mm diameter), at a density of 10^5 cells/cm^2. Cell culture medium (0.5 and 1.5 ml in the apical and basolateral compartment, respectively) was changed every two days.
(§2) Transport experiments were performed between day 20 and 23 post-seeding. Prior to the transport experiments, the cell culture medium was removed and cells were equilibrated in HBSS for 30–45 min in a 5% CO2-humidified atmosphere at 37 °C. In these 45 min, the integrity of the cell monolayer was examined by measuring the Trans Epithelial Electrical Resistance (TEER) of the cell layer using a Millicell ERS-2 Volt–Ohm Meter (Millipore, USA). Only cell layers with a TEER value between 500 and 1000 Ω cm^2 were used for the transport experiments. The transport buffer for the apical compartment consisted of HBSS containing 10 mM HEPES (pH 6.5) and 10 mM sodium taurocholate and the transport buffer for the basolateral compartment consisted of HBSS (pH 7.4) with 30 mg/ml bovine serum albumin. At first, 1.5 ml pre-warmed (37 °C) transport buffer was added to the basolateral compartment. Then, the transport experiments were started by adding 0.5 ml pre-warmed transport buffer containing the test compound (100 µM) to the apical compartment. After 60-min incubation in a 5% CO2-humidified atmosphere at 37 °C, a 75 µl sample was taken from the basolateral compartment and then from the apical compartment. Each sample was added to 150 µl ice-cold methanol, vortexed and put on ice immediately. […] Samples were analysed by UPLC–PDA (see “Quantification of analytes” section) for the presence of the test compound and possible metabolites.
(§3) TEER values were also measured at the end of the transport experiment, during the first washing step and compared to the TEER values measured before the transport experiment in order to assess toxicity of the test compound to the cell monolayer. […]
(§4) The apparent permeability coefficients (P app; cm/s) were calculated using the following algorithm: Papp=ΔQ/Δt/A∗C0 where P app is the apparent permeability coefficient (cm/s), ΔQ/Δt (nmol/s) is the amount of the test compound transported to the receiver chamber in a certain time period, A is the transwell membrane surface area (cm^2) and C 0 is the initial concentration of the test compound in the donor compartment (µM).
(§5) In order to assess the validity of the P app calculations for this experiment, the linearity of transport from the apical to the basolateral side was verified by taking samples from the basolateral side at t = 15, 30, 60 and 90 min, at a test concentration of 100 µM. […] The recovery of the test compound in each transport experiment was calculated with a mass balance equation, taking into account the amount of the test compound in the apical and basolateral compartment and the amount in the cells and/or filter of the Transwell® insert.

[2] = In vitro placental transport study (BeWo b30 transwell); settings: human
Protocol: (§6) BeWo cells (passages 28–31) were cultured in DMEM with […] and supplemented with 10% (v/v) heat-inactivated FCS, 2 mM L-glutamine, 10,000 U/ml penicillin and 10 mg/ml streptomycin and maintained in polystyrene cell culture flasks (Corning, Amsterdam, the Netherlands) in a 5% CO2-humidified atmosphere at 37 °C. Cells were harvested after exposure to a trypsin–EDTA solution. Next, the cells were seeded onto Transwell® inserts (0.4-µm pored polycarbonate membrane, 12 mm diameter), with a density of 10^5 cells/cm^2. Cell culture medium (0.5 and 1.5 ml in the apical and basolateral compartment, respectively) was changed daily.
(§7) Transport experiments were performed 6 days post-seeding. The transport buffer consisted of HBSS with 30 mg/ml bovine serum albumin (apical compartment) and 10 mg/ml bovine serum albumin (basolateral compartment) representing mid- and late gestational maternal and embryonic/foetal rat plasma albumin levels, respectively (Honda et al. [2008]; Mcmullin et al. [2008]; Yeoh and Morgan [1974]). The transport experiments were performed for the same compounds and according to the same method as described for the Caco-2 transport experiments, except that only cell layers with a TEER value >190 Ω cm^2 were used for the transport experiments. The BeWo transport studies encompassed four independently performed experiments including two replicates in each assay. Samples were analysed by UPLC–PDA (see “Quantification of analytes” section) for the presence of the test compound and possible metabolites. The apparent permeability coefficients were calculated using the same method as described for the Caco-2 transport experiments.

BeWo cells = test: as above
Protocol: as §6, §7

rat liver microsomes [3] = test: Glucuronidation of phenols by rat liver microsomes; settings: for Vmax(app) glucuronidation (± SD): rat liver microsomes, 10 mM UDPGA, alamethicin activated
Protocol: (§8) The formation of glucuronide metabolites of the p-substituted phenols was investigated in incubations with rat liver microsomes. […] To obtain maximum glucuronidation activity, the microsomes were activated by preincubating the incubation mixture with 0.025 mg/ml alamethicin added from a 200 times concentrated stock solution in methanol, during 15 min on ice (Fisher et al. [2000]). Subsequently, the incubations were started after a 1-min preincubation at 37 °C by addition of the substrate from a 200 times concentrated stock solution in DMSO and incubated in a shaking water bath at 37 °C for 45 min. The reactions were terminated by addition of ice-cold acetonitrile (20% v/v). In the blank incubation mixtures, UDPGA was omitted. Samples were analysed by UPLC–PDA (see “Quantification of analytes” section). No reference standards of the glucuronide metabolites were commercially available. […] At first, retention times from the UPLC–PDA chromatograms of the parent compound of the blank incubation were compared with the retention times of newly appearing peaks in chromatograms of the incubation mixtures, as the glucuronide conjugates are expected to elute earlier compared with their parent compounds due do their increased hydrophilicity. […] For this purpose, a volume of 10 µl of the incubation mixture of the glucuronidation assay (that was not terminated by the addition of ice-cold acetonitrile) was added to 90 µl of 200 mM potassium phosphate (pH 6.2). Then, 4 µl of glucuronidase (200 units/ml) was added, and the mixtures were incubated for 60 min in a shaking water bath at 37 °C. The reactions were terminated by addition of ice-cold acetonitrile (20% v/v) and were put on ice. Control samples were treated under the same conditions, but without glucuronidase.
(§9) The conditions of the incubation assays were optimised to obtain linear reaction rates with respect to incubation time and protein concentration and non-limiting cofactor levels were applied. […] To obtain maximum glucuronidation activity, the microsomes were activated by preincubating the incubation mixture with 0.025 mg/ml alamethicin added from a 200 times concentrated stock solution in methanol, during 15 min on ice (Fisher et al. [2000]).
(§10) Kinetic constants for the glucuronidation of the p-substituted phenols were derived by fitting the data to the standard Michaelis–Menten equation; v=Vmax∗S/Km+[S] in which [S] represents the substrate concentration, V max the maximum velocity and K m the Michaelis–Menten constant for the formation of the glucuronide metabolites. Data analysis was accomplished using GraphPad Prism 5.0 software (GraphPad, San Diego, CA, USA). […] The in vivo K m value was assumed to be the same to the in vitro K m value.
(§11) Samples from the BeWo and Caco-2 transport experiments were centrifuged at 13,000 rpm at 5 °C for 15 min. Next 7.5 µl of the supernatant of each sample was analysed by UPLC (Waters Acquity). Samples from the glucuronidation assays were centrifuged at 15,000 rpm at 5 °C for 5 min. […] All samples, except those from transport studies with fluorescein, were analysed on a Waters BEH C18 1.7 µm column, 2.1 × 50 mm, with nanopure water (0.1% TFA) (A) and pure acetonitrile (B) applying a gradient elution. The start condition was 100:0 (A:B), changing to 90:10 from 1 to 2 min, then to 10:90 from 2 to 4 min (or from 2 to 3 min when analysing samples for p-heptyloxyphenylglucuronide), remaining at this ratio for 0.5 min and then rapidly declining to the start condition. The flow rate was 0.6 ml/min.

[4] = In vivo developmental toxicity study, rats exposed at GD11; settings: female, rat
Source text: (§12) The BMDL05 values of the in vivo study were derived using the BMDS version 2.6.

Balb/c 3T3 clone A31 = settings: BSA levels reflecting in vitro and in vivo situation
Protocol: (§13) In vitro concentration–response data obtained with the EST were translated to in vivo dose–response values by applying PBK-based reverse modelling, performed as described by Strikwold et al. ([2013]) with some modifications. […] In vivo albumin and fat levels that are used in the extrapolation rules were adjusted to values that correspond to embryos/foetuses during mid-/late gestation. […] The vitro lipid fraction and albumin levels resembling the situation in the EST were 0.04% and 4.8 mg/ml, respectively (Verwei et al. [2006]).

[5] = cited from earlier work; for Concentration in EST culture medium over time: without cells, ref Strikwold et al. [2012]
[6] = rat, ref Humphrey et al. [1980], cited from earlier work
rat liver microsomes [7] = settings: cited from earlier work
Caco-2 cells = test: in vitro
Protocol: as §1, §2, §3, §4, §5

rat = test: In vitro PBK-based reverse dosimetry (predicted developmental toxicity); settings: BMDL05 based on Cmax
Protocol: as §13, §12

albumin = settings: cited from earlier work
whole embryo culture = settings: cited from earlier work
in vivo = settings: female, rat GD11, allometrically scaled from GD20 value of Varma and Ramakrishnan [1985], read-out: CLPL, transplacental maternal-foetal clearance rate (converted)
[8] = rat at GD20; ref Varma and Ramakrishnan [1985]; cited from earlier work
in vitro [9] = settings: rat, pH 7.4
Protocol: as §8, §9, §10, §11

ES-D3 cells = settings: ref Strikwold et al. [2012]; cited from earlier work
[10] = P app ratio to antipyrine multiplied by antipyrine clearance 0.18 l/h, GD11

Compound	Papp A→B at 60 min, 100 µM (in vitro [1])	Papp A→B at 60 min, 100 µM [2]	CLPL, predicted rat transplacental clearance (BeWo cells; [10])	Concentration in EST culture medium over time [5]	ka, predicted oral absorption coefficient (Caco-2 cells; Caco-2)	CLPL, predicted rat transplacental clearance (BeWo cells)	Km (rat liver microsomes [3])	Scaled Vmax(app) (rat liver microsomes [3])	Vmax(app) glucuronidation (± SD) (rat liver microsomes [3])	Potency ratio (phenol / p-substituted phenol), in vitro PBK approach (rat)	also measured
Oc1ccccc1 [Phenol]	48.4 ± 8.6 ×10⁻⁶ cm/s	41.6 ± 3.4 ×10⁻⁶ cm/s	0.19 L/h	decreased in time							P app fold higher than antipyrine (BeWo cells; BeWo): 1.03 fold; Scaled catalytic efficiency (rat liver microsomes [3]; scaled to rat liver): 0.44 l/h/g liver; Scaled Vmax(app) (rat liver microsomes [3]; scaled with microsomal protein yield 38 mg/g rat liver): 205 µmol/h/g liver; NOAEL [4]: 333 mg/kg; Effect of bovine serum albumin level on in vitro cytotoxicity (Balb/c 3T3 clone A31): not affected; Loss in the EST ([5]; 10-day EST, ref Strikwold et al. [2013]): 39%; ka, uptake rate from in situ intestinal perfusion [6]: 7.62^b /h; ka, uptake rate from in situ intestinal perfusion ([6]; listed as phenol): 7.62 h⁻¹; Km (rat liver microsomes [7]; read-out: Km(app) glucuronidation (± SD), ref Strikwold et al. [2013]): 465 ± 66 µM; Vmax(app) glucuronidation (± SD) (rat liver microsomes [7]; ref Strikwold et al. [2013]): 90 ± 4 nmol/min/mg microsomal protein
CC(=O)c1ccc(O)cc1 [p-Methylketophenol, p-methylketophenol]				stable	8.18 h⁻¹	0.12 L/h	138 ± 17 µM	365 µmol/h/g liver	160 ± 4.4 nmol/min/mg microsomal protein	0.5 fold	Catalytic efficiency (Vmax/Km) (rat liver microsomes [3]): 1.16 ml/min/mg protein; Scaled catalytic efficiency (rat liver microsomes [3]): 2.65 l/h/g liver
O=C1OC2(c3ccc(O)cc3Oc3cc(O)ccc32)c2ccccc21 [fluorescein, reference compound]											P app / transport fold lower than antipyrine (BeWo cells; BeWo): 11 fold
CCCCCCCOc1ccc(O)cc1 [p-Heptyloxyphenol, p-heptyloxyphenol]				stable	6.34 h⁻¹	0.026 L/h	2.1 ± 0.6 µM	137 µmol/h/g liver	60 ± 4.5 nmol/min/mg microsomal protein		Fraction bound to albumin (albumin): 0.99; Embryotoxic potency when hepatocytes were added (whole embryo culture): greatly reduced
Cc1cc(=O)n(-c2ccccc2)n1C [Antipyrine, antipyrine]											clearance (in vivo): 3 mL/min; Transplacental clearance value [8]: 0.448 L/h/kg
Oc1ccc(F)cc1 [p-Fluorophenol, p-fluorophenol]	47.7 ± 13.8 ×10⁻⁶ cm/s	34.2 ± 3.3 ×10⁻⁶ cm/s	0.15 L/h	decreased in time					101 ± 1.6 nmol/min/mg microsomal protein	0.7 fold	ka, predicted oral absorption coefficient (Caco-2 cells; rat, Caco-2, 100 µM): 7.52 h⁻¹; Km at 10 min (in vitro [9]): 314 ± 16 µM; Catalytic efficiency (Vmax/Km) (rat liver microsomes [3]; Sprague-Dawley, rat, pH 7.4): 0.32 ml/min/mg protein; Scaled catalytic efficiency (rat liver microsomes [3]; Sprague-Dawley, rat, pH 7.4): 0.74 l/h/g liver; Scaled Vmax(app) (rat liver microsomes [3]; rat, pH 7.4): 231 µmol/h/g liver; Potency ratio / difference in BMC50 (phenol / p-substituted phenol) in the EST (ES-D3 cells): 1.9 fold
